The source of these data is PubChem BioAssay AID1671291.

In the assay the target is Tyrosine-protein kinase HCK (Homo sapiens) (UniProt P08631). The assay is described as follows: HCK kinase inhibition, dose response, biochemical, Z'-LYTE, FRET readout, direct format (AID 1671291). Particulars: Z'-LYTE FRET peptide phosphorylation, recombinant HCK.
Tyrosine-protein kinase HCK (Homo sapiens), sequence (P08631 whole entry, looked up): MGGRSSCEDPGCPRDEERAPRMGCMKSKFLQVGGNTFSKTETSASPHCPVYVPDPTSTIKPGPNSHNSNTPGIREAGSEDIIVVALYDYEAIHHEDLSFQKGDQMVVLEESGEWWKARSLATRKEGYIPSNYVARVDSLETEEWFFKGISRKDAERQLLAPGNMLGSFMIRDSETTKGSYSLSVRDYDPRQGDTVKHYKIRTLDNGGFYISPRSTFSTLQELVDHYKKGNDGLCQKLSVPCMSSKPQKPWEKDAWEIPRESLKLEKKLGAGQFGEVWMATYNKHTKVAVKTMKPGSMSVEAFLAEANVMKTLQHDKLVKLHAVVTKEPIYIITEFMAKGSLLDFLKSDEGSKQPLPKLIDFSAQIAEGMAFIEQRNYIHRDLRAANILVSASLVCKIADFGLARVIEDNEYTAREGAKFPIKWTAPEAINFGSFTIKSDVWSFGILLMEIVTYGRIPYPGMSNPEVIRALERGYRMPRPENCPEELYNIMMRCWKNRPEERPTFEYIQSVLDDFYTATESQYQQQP

For orientation: IC50 means the concentration that inhibits the measured activity by half. As to `COc1cc2ncnc(Nc3cccc(Cl)c3)c2cc1OC`, the IC50 is 943 nM.
